Earlier results on two molecules are cited in patent US8338423B2, “Compositions for the treatment of hyperphenylalaninemia” (Universidad de Zaragoza, priority 2007, dated 2012).

SMILES strings stand for the structures.

This series has as its target T1, wt-PAH (Homo sapiens, UniProt P00439).
T1 construct: made in house; host or cells: E. coli
T1 sequence (P00439 1-452): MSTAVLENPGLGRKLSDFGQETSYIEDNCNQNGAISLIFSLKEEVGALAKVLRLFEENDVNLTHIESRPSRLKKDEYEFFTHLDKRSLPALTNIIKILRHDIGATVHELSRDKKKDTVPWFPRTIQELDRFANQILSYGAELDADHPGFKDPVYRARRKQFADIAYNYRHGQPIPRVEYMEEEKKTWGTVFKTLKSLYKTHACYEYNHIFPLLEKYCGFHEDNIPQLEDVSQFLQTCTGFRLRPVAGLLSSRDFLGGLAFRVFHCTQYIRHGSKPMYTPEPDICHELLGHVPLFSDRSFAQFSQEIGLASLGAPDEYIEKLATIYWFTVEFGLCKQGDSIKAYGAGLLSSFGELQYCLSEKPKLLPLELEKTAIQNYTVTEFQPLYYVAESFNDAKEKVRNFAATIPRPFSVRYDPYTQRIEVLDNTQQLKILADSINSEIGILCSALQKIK
As to conditions: comparison values; read-out: Kl of likely physiological inhibitors of PAH; cited from earlier work.

Regarding `C[C@H](O)[C@H](O)C1=Nc2c(nc(N)[nH]c2=O)NC1` [BH2], the Ki is about 17 µM.
In the case of `CC(O)C(O)C1CNc2c(nc(N)[nH]c2=O)N1` (stereo not drawn) [Compound 7S-BH4], the Ki was 2 to 5 µM.
